# Laboratory results reported in patent publication US20230146455A1, “TREATMENT OF INFLAMMATORY DISEASES WITH PEPTIDES AND PHARMACEUTICAL COMPOSITIONS” (Yuyu Pharma, Inc., priority 2020, published 2023).
# Values joined by “and” are separate entries in the source; they are usually repeats but may differ in a detail not shown here. Identical values can stand only once. Where a SMILES comes first, the peptide text is derived from it. [ ]: non-standard residue; d: D form. Hyp = O=C(O)[C@@H]1C[C@@H](O)CN1
# Legend:
# IL-8/CXCL8 = test: Example 8 main study Luminex, LPS hPBMCs: IL-8/CXCL8; assay type: cell-based, human
# Description: (§1) Human PBMCs were pretreated with YY-101, YDE-011, YDE-043 or reference compound; Xiidra® at various concentration (ranging from […] to 500 nM) for 2 h before stimulation. An equal volume of 0.5% DMSO was used as a vehicle control. Then, the cells were treated with LPS at 5 ug/ml, which was selected based on the pilot study. The supernatants from treated cells were harvested at 24 h and placed in a 96 well for Luminex cytokine & chemokine profiling using a Luminex 200 multiplex assay (Luminex; R&D system, USA).
# (§2) The main study arm with triplicate wells per group in a 24-well plate: • 1. Blank • 2. PBMC: 0.5% DMSO • 3. PBMC+LPS (5 ug/ml) • 4. PBMC+YY-101 500 nM • 5. PBMC+YY-101 50 nM • 6. PBMC+YY-101 5 nM • 7. PBMC+YY-101 0.5 nM • 8. PBMC+LPS (5 ug/ml)+Xiidra® 500 nM • 9. PBMC+LPS (5 ug/ml)+Xiidra® 50 nM • 10. PBMC+LPS (5 ug/ml)+Xiidra® 5 nM • 11. PBMC+LPS (5 ug/ml)+Xiidra® 0.5 nM • 12. PBMC+LPS (5 ug/ml)+Xiidra® 0.05 nM • 13. PBMC+LPS (5 ug/ml)+Xiidra® 0.005 nM • 14. PBMC+LPS (5 ug/ml)+YY-101 500 nM • 15. PBMC+LPS (5 ug/ml)+YY-101 50 nM • 16. PBMC+LPS (5 ug/ml)+YY-101 5 nM • 17. PBMC+LPS (5 ug/ml)+YY-101 0.5 nM • 18. PBMC+LPS (5 ug/ml)+YY-101 0.05 nM • 19. PBMC+LPS (5 ug/ml)+YY-101 0.005 nM • 20. PBMC+LPS (5 ug/ml)+YDE-011 500 nM • 21. PBMC+LPS (5 ug/ml)+YDE-011 50 nM • 22. PBMC+LPS (5 ug/ml)+YDE-011 5 nM • 23. PBMC+LPS (5 ug/ml)+YDE-011 0.5 nM • 24. PBMC+LPS (5 ug/ml)+YDE-011 0.05 nM • 25. PBMC+LPS (5 ug/ml)+YDE-011 0.005 nM • 26. PBMC+LPS (5 ug/ml)+YDE-043 500 nM • 27. PBMC+LPS (5 ug/ml)+YDE-043 50 nM • 28. PBMC+LPS (5 ug/ml)+YDE-043 5 nM • 29. PBMC+LPS (5 ug/ml)+YDE-043 0.5 nM • 30. PBMC+LPS (5 ug/ml)+YDE-043 0.05 nM • 31. PBMC+LPS (5 ug/ml)+YDE-043 0.005 nM
# (§3) Multiplex assay was used to measure 30 cytokines and chemokines. The 1:200 diluted cell supernatant and serial dilution of the standard were dispensed into a 96 well plate at 50 ul/well. Then, the pre-mixed cocktail of antibody-coated magnetic beads was dispensed at 50 ul/well and incubated at room temperature for 2 h in a horizontal orbital microplate shaker at 800±500 rpm. The beads were washed using a magnetic device to prevent loss. The biotin-antibody was dispensed in 50 ul of each well and incubated at room temperature for 1 h in a shaker at 800±500 rpm. After washing, streptavidin-PE was added at 50 ul/well and incubated at room temperature for 30 min in a shaker under the same conditions. Finally, after washing, wash buffer (100 ul/well) was added to the plate and incubated in a shaker for 2 min. The Luminex™ 200 setting were set according to the manufacturer's protocol. The data was calculated with a standard five-parameter logistic nonlinear regression analysis of the data (xPonent software 4.2, USA). Results were presented as concentration (ng/ml or pg/ml).
# IL-10 = test: Example 8 main study Luminex, LPS hPBMCs: IL-10; assay type: cell-based, human; details: for IL-10 Concentration: individual replicates; for IL-10 Concentration (pg/ml), Mean: mean of replicates
# Description: as §1, §2, §3
# [1] = PBMC + LPS(5 ug/ml) + test article 0.005 nM
# [2] = PBMC + LPS(5 ug/ml) + test article 0.05 nM
# [3] = PBMC + LPS(5 ug/ml) + test article 0.5 nM
# [4] = PBMC + LPS(5 ug/ml) + test article 5 nM
# [5] = PBMC + LPS(5 ug/ml) + test article 50 nM
# [6] = PBMC + LPS(5 ug/ml) + test article 500 nM
# [7] = at as low as 5 μM, LPS 5 ug/mL 24 hrs
compound,measurement,setting,value
CC(C)C[C@H](NC(=O)CNC(=O)[C@H](CC(=O)O)NC(=O)[C@H](CCC(N)=O)NC(=O)CNC(=O)[C@@H]1C[C@@H](O)CN1)C(=O)N[C@@H](C)C(=O)NCC(=O)N1CCC[C@H]1C(=O)N[C@@H](CCCCN)C(=O)O [YY-101] (H-[Hyp]GQDGLAGPK-OH; N-terminus and C-terminus assumed),"IL-8/CXCL8 Concentration, Mean",IL-8/CXCL8; [1],58481.9 pg/mL
same,IL-8/CXCL8 Concentration,"IL-8/CXCL8; PBMC + LPS(5 ug/ml) + test article 0.005 nM, single replicates (1st, 2nd, 3rd)",61546.6 pg/mL and 56884.9 pg/mL and 57014.3 pg/mL
same,"IL-8/CXCL8 Concentration, Mean",IL-8/CXCL8; [2],59990.6 pg/mL
same,IL-8/CXCL8 Concentration,"IL-8/CXCL8; PBMC + LPS(5 ug/ml) + test article 0.05 nM, single replicates (1st, 2nd, 3rd)",57359.8 pg/mL and 60536.4 pg/mL and 62075.6 pg/mL
same,"IL-8/CXCL8 Concentration, Mean",IL-8/CXCL8; [3],60251.0 pg/mL
same,IL-8/CXCL8 Concentration,"IL-8/CXCL8; PBMC + LPS(5 ug/ml) + test article 0.5 nM, single replicates (1st, 2nd, 3rd)",60909.2 pg/mL and 57900.7 pg/mL and 61943.2 pg/mL
same,"IL-8/CXCL8 Concentration, Mean",IL-8/CXCL8; [4],57315.8 pg/mL
same,IL-8/CXCL8 Concentration,"IL-8/CXCL8; PBMC + LPS(5 ug/ml) + test article 5 nM, single replicates (1st, 2nd, 3rd)",55583.6 pg/mL and 55980.8 pg/mL and 60383.1 pg/mL
same,"IL-8/CXCL8 Concentration, Mean",IL-8/CXCL8; [5],54680.4 pg/mL
same,IL-8/CXCL8 Concentration,"IL-8/CXCL8; PBMC + LPS(5 ug/ml) + test article 50 nM, single replicates (1st, 2nd, 3rd)",54759.1 pg/mL and 53065.0 pg/mL and 56217.2 pg/mL
same,"IL-8/CXCL8 Concentration, Mean",IL-8/CXCL8; [6],58292.3 pg/mL
same,IL-8/CXCL8 Concentration,"IL-8/CXCL8; PBMC + LPS(5 ug/ml) + test article 500 nM, single replicates (1st, 2nd, 3rd)",60492.6 pg/mL and 59945.6 pg/mL and 54438.6 pg/mL
same,"IL-8/CXCL8 Concentration, Mean","IL-8/CXCL8; PBMC + test article 0.5 nM, no LPS",3635.9 pg/mL
same,IL-8/CXCL8 Concentration,"IL-8/CXCL8; PBMC + test article 0.5 nM, no LPS, single replicates (1st, 2nd)",1970.8 pg/mL and 5300.9 pg/mL
same,"IL-8/CXCL8 Concentration, Mean","IL-8/CXCL8; PBMC + test article 5 nM, no LPS",2809.1 pg/mL
same,IL-8/CXCL8 Concentration,"IL-8/CXCL8; PBMC + test article 5 nM, no LPS, single replicates (1st, 2nd)",3848.8 pg/mL and 1769.4 pg/mL
same,"IL-8/CXCL8 Concentration, Mean","IL-8/CXCL8; PBMC + test article 0.05 uM, no LPS",8117.7 pg/mL
same,IL-8/CXCL8 Concentration,"IL-8/CXCL8; PBMC + test article 0.05 uM, no LPS, single replicates (1st, 2nd)",13586.7 pg/mL and 2648.7 pg/mL
same,"IL-8/CXCL8 Concentration, Mean","IL-8/CXCL8; PBMC + test article 50 nM, no LPS",1630.9 pg/mL
same,IL-8/CXCL8 Concentration,"IL-8/CXCL8; PBMC + test article 50 nM, no LPS, single replicates (1st, 2nd)",2009.8 pg/mL and 1252.1 pg/mL
same,"IL-8/CXCL8 Concentration, Mean","IL-8/CXCL8; PBMC + test article 500 nM, no LPS",1641.8 pg/mL
same,IL-8/CXCL8 Concentration,"IL-8/CXCL8; PBMC + test article 500 nM, no LPS, single replicates (1st, 2nd)",1297.1 pg/mL and 1986.4 pg/mL
same,LPS-induced IL-8 (in words),IL-8/CXCL8; [7],significantly reduced
same,IL-10 Concentration,IL-10; [1],832.3 pg/mL and 677.1 pg/mL and 780.9 pg/mL
same,"IL-10 Concentration (pg/ml), Mean",IL-10; [1],763.4 pg/mL
same,IL-10 Concentration,IL-10; [2],806.6 pg/mL and 1121.8 pg/mL and 883.3 pg/mL
same,"IL-10 Concentration (pg/ml), Mean",IL-10; [2],937.2 pg/mL
same,IL-10 Concentration,IL-10; [3],870.5 pg/mL and 703.2 pg/mL and 716.2 pg/mL
same,"IL-10 Concentration (pg/ml), Mean",IL-10; [3],763.3 pg/mL
same,IL-10 Concentration,IL-10; [4],857.8 pg/mL and 934.0 pg/mL and 1009.5 pg/mL
same,"IL-10 Concentration (pg/ml), Mean",IL-10; [4],933.8 pg/mL
same,IL-10 Concentration,IL-10; [5],651.0 pg/mL and 845.0 pg/mL and 793.8 pg/mL
same,"IL-10 Concentration (pg/ml), Mean",IL-10; [5],763.3 pg/mL
same,IL-10 Concentration,IL-10; [6],832.3 pg/mL and 883.3 pg/mL and 755.1 pg/mL
same,"IL-10 Concentration (pg/ml), Mean",IL-10; [6],823.5 pg/mL
same,IL-10 Concentration,"IL-10; PBMC + test article 0.5 nM, no LPS, dilution 200",<2.59 pg/mL
same,IL-10 Concentration,"IL-10; PBMC + test article 5 nM, no LPS, dilution 200",<2.59 pg/mL
same,IL-10 Concentration,"IL-10; PBMC + test article 0.05 uM, no LPS, dilution 200",<2.59 pg/mL
same,IL-10 Concentration,"IL-10; PBMC + test article 50 nM, no LPS, dilution 200",<2.59 pg/mL
same,IL-10 Concentration,"IL-10; PBMC + test article 500 nM, no LPS, dilution 200",<2.59 pg/mL
same,LPS-induced IL-10 (in words),IL-10; [7],significantly reduced
